Measurements: the NIST ThermoML archive (doi:10.1021/je030191w)

Test: xn = mol fraction of the nth substance listed
Conditions: 101 kPa, Liquid

CCn1cc[n+](C)c1.F[B-](F)(F)F [1-ethyl-3-methylimidazolium tetrafluoroborate] + O
Conditions	mass density [kg/m3]	viscosity [mPa·s]
293.15 K, x2 = 0	1340.7	45.29
293.15 K, x2 = 0.0995	1336.1	34.43
293.15 K, x2 = 0.2062	1330	25.1
293.15 K, x2 = 0.3047	1322.9	19.25
293.15 K, x2 = 0.4034	1313.4	13.76
293.15 K, x2 = 0.5034	1299.8	10.36
293.15 K, x2 = 0.5998	1284.2	7.892
293.15 K, x2 = 0.7005	1262	5.797
293.15 K, x2 = 0.8011	1225.9	4.127
293.15 K, x2 = 0.9027	1157.4	3.035
298.15 K, x2 = 0	1336.7	37.19
298.15 K, x2 = 0.0995	1332.1	29.02
298.15 K, x2 = 0.2062	1326	21.01
298.15 K, x2 = 0.3047	1318.9	15.96
298.15 K, x2 = 0.4034	1309.5	11.45
298.15 K, x2 = 0.5034	1296	8.597
298.15 K, x2 = 0.5998	1280.6	6.975
298.15 K, x2 = 0.7005	1258.4	4.822
298.15 K, x2 = 0.8011	1222.3	3.499
298.15 K, x2 = 0.9027	1154.2	2.584
303.15 K, x2 = 0	1332.9	31.36
303.15 K, x2 = 0.0995	1328.3	24.8
303.15 K, x2 = 0.2062	1322.2	17.9
303.15 K, x2 = 0.3047	1315.2	13.58
303.15 K, x2 = 0.4034	1305.8	9.674
303.15 K, x2 = 0.5034	1292.3	7.384
303.15 K, x2 = 0.5998	1276.9	5.492
303.15 K, x2 = 0.7005	1254.8	3.896
303.15 K, x2 = 0.8011	1218.7	2.962
303.15 K, x2 = 0.9027	1151.1	2.189
308.15 K, x2 = 0	1329.6	25.56
308.15 K, x2 = 0.0995	1324.9	20.53
308.15 K, x2 = 0.2062	1318.9	14.58
308.15 K, x2 = 0.3047	1311.9	10.93
308.15 K, x2 = 0.4034	1302.5	8.187
308.15 K, x2 = 0.5034	1288.9	6.409
308.15 K, x2 = 0.5998	1273.5	4.707
308.15 K, x2 = 0.7005	1251.4	3.531
308.15 K, x2 = 0.8011	1215.4	2.555
308.15 K, x2 = 0.9027	1148	1.898
313.15 K, x2 = 0	1325.9	21.54
313.15 K, x2 = 0.0995	1321.2	17.96
313.15 K, x2 = 0.2062	1315.2	12.68
313.15 K, x2 = 0.3047	1308.1	9.634
313.15 K, x2 = 0.4034	1298.7	7.165
313.15 K, x2 = 0.5034	1285.3	5.465
313.15 K, x2 = 0.5998	1269.7	4.159
313.15 K, x2 = 0.7005	1247.5	3.133
313.15 K, x2 = 0.8011	1211.8	2.267
313.15 K, x2 = 0.9027	1145	1.689
318.15 K, x2 = 0	1322.2	18.84
318.15 K, x2 = 0.0995	1317.6	15.93
318.15 K, x2 = 0.2062	1311.6	11.16
318.15 K, x2 = 0.3047	1304.5	8.324
318.15 K, x2 = 0.4034	1295	6.357
318.15 K, x2 = 0.5034	1281.6	4.979
318.15 K, x2 = 0.5998	1266	3.63
318.15 K, x2 = 0.7005	1243.9	2.584
318.15 K, x2 = 0.8011	1208.2	2.044
318.15 K, x2 = 0.9027	1141.8	1.53
323.15 K, x2 = 0	1319.5	15.9
323.15 K, x2 = 0.0995	1314.8	13.74
323.15 K, x2 = 0.2062	1308.8	9.797
323.15 K, x2 = 0.3047	1301.6	7.47
323.15 K, x2 = 0.4034	1292	5.692
323.15 K, x2 = 0.5034	1278.6	4.522
323.15 K, x2 = 0.5998	1263.1	3.215
323.15 K, x2 = 0.7005	1240.7	2.512
323.15 K, x2 = 0.8011	1205	1.904
323.15 K, x2 = 0.9027	1138.5	1.439
